Results: US4198349A, “Benzylideneaniline derivatives” (William H. Rorer, Inc., priority 1978, dated 1980)

Tested on: croton oil-induced inflammation in the mouse's ear
Assay: Topical anti-inflammatory activity after immediate application in croton oil-induced inflammation in the mouse's ear
Format: in vivo, mouse (female CF1)
Conditions: 4 h, Topical Dose 4 mg/ear, immediate application with 2% croton oil, ears taken four hours after application, read-out: % Inhibition of Ear Edema
Method: Testing of the anti-inflammatory effects of the compounds of Formula I were performed utilizing a modification of the experimental techniques described by Tonelli, G., Thibault, L. and Ringler, L., "A Bioassay for the Concomitant Assessment of the Anti-phlogistic and Thymolytic Activities of Topically Applied Corticoids": Endocrinology 77, 625 (1965) and Roszkowski, A. P., Rooks, W. H. II, Tomolonis, A. J., and Miller, L. M., "Anti-inflammatory and Analgetic Properties of the d-2-(6-Methoxy-2'-Naphthyl)Propionic Acid (Naproxen)". J. Pharm. Exp. Ther., 179, 114 (1971).
The topical anti-inflammatory activity of the test compounds is measured by immediate application at the time of induction of croton oil-induced inflammation in the mouse's ear.
0.1 ml. of a solution containing 2% croton oil (Amend Drug and Chemical Co., Irvington, N.J.), 73% diethyl ether, U.S.P. (Corco Chemical Corp., Fairless Hills, Pa.), 20% pyridine (J. T. Baker Chemical Co., Phillipsburg, Pa.) and 5% distilled water was applied to the left ear of female CF1 mice, in groups of six, during light ether anesthesia.
Four hours after application of either the irritant solution or the irritant solution containing the test compound, the mice were sacrificed by cervical dislocation, both ears were amputated and circular sections, one from each ear, were removed with a No. 4 cork borer (7 mm, i.d.). Each ear section was then weighed. The increase in weight due to edema formation caused by the croton oil in the treated ear and the reduction of that edema caused by drug treatment was determined by subtracting the weight of the untreated right ear section from that of the treated left ear section.
The anti-inflammatory effects of the test compounds expressed as percent inhibition are calculated by: [formula]
TOPICAL ANTI-INFLAMMATORY ACTIVITY AFTER
IMMEDIATE APPLICATION IN CROTON OIL-INDUCED
INFLAMMATION IN THE MOUSE'S EAR

Structure (SMILES) | inhibition in vivo at 4 mg/ear
Clc1ccc(N=Cc2c(Cl)cccc2Cl)cc1 [N-(2,6-dichlorobenzylidene)-p-chloroaniline] | 9.1%
Clc1cc(C=Nc2ccc(Br)cc2)ccc1C1CCCCC1 [N-(3-chloro-4-cyclohexylbenzylidene)-p-bromoaniline] | 1.5%
Fc1ccc(N=Cc2ccc(C3CCCCC3)c(Cl)c2)cc1 [N-(3-chloro-4-cyclohexylbenzylidene)-p-fluoroaniline] | 6.8%
Fc1ccc(N=Cc2cccc(Cl)c2)cc1 [N-(m-chlorobenzylidene)-p-fluoroaniline] | 9.1%
Cc1c(Cl)cccc1N=Cc1ccccc1Cl [N-(o-chlorobenzylidene)-3-chloro-2-methylaniline] | 44.3%
Clc1cccc(N=Cc2ccccc2Cl)c1 [N-(o-chlorobenzylidene)-m-chloroaniline] | 4%
Fc1ccc(N=Cc2ccccc2Cl)cc1 [N-(o-chlorobenzylidene)-p-fluoroaniline] | 24.3%
Cc1cccc(N=Cc2ccccc2O)c1C [N-(o-hydroxybenzylidene)-2,3-dimethylaniline] | 27.8%
Cc1c(Cl)cccc1N=Cc1ccccc1O [N-(o-hydroxybenzylidene)-2-methyl-3-chloroaniline] | 38.5%
Oc1ccccc1C=Nc1ccccc1 [N-(o-hydroxybenzylidene)-aniline, N-(o-hydroxybenzylidene)aniline] | 5.3%
Oc1ccccc1C=Nc1cccc(C(F)(F)F)c1 [N-(o-hydroxybenzylidene)-m-(α,α,α-trifluorotoluidine)] | 21.6%
Oc1ccccc1C=Nc1ccc(F)cc1 [N-(o-hydroxybenzylidene)-p-fluoroaniline] | 21.5%
Fc1ccc(N=Cc2ccc(Br)cc2)c(C(F)(F)F)c1 [N-(p-bromobenzylidene)-4-fluoro-2-trifluoromethylaniline] | 18.8%
Cc1c(Cl)cccc1N=Cc1ccc(Cl)cc1 [N-(p-chlorobenzylidene)-2-methyl-3-chloroaniline] | 46.8%
Cc1cc(Cl)ccc1N=Cc1ccc(Cl)cc1 [N-(p-chlorobenzylidene)-2-methyl-4-chloroaniline] | 23%
Fc1ccc(N=Cc2ccc(Cl)cc2)c(C(F)(F)F)c1 [N-(p-chlorobenzylidene)-4-fluoro-2-trifluoromethylaniline] | 36.5%

Structure (SMILES) | inhibition in vivo at 4 mg/ear
Clc1ccc(C=Nc2cccc(Cl)c2)cc1 [N-(p-chlorobenzylidene)-m-chloroaniline] | 23.6%
Fc1cccc(N=Cc2ccc(Cl)cc2)c1 [N-(p-chlorobenzylidene)-m-fluoroaniline] | 10.8%
Fc1ccc(N=Cc2ccc(Cl)cc2)cc1 [N-(p-chlorobenzylidene)-p-fluoroaniline] | 45.2%
Cc1ccc(N=Cc2ccc(Cl)cc2)cc1 [N-(p-chlorobenzylidene)-p-methylaniline] | 16.2%
Fc1ccc(C=Nc2ccccc2C(F)(F)F)cc1 [N-(p-fluorobenzylidene)-o-trifluoromethylaniline] | 21.3%
Clc1cc(Br)ccc1N=Cc1ccc(-c2ccccc2)cc1 [N-(p-phenylbenzylidene)-2-chloro-4-bromoaniline] | 33.9%
C(=Nc1ccccc1)c1ccc(-c2ccccc2)cc1 [N-(p-phenylbenzylidene)-aniline, N-(p-phenylbenzylidene)aniline] | 24.7%
Brc1ccc(N=Cc2ccc(-c3ccccc3)cc2)cc1 [N-(p-phenylbenzylidene)-p-bromoaniline] | 25.5%
Cc1ccc(N=Cc2ccc(-c3ccccc3)cc2)cc1 [N-(p-phenylbenzylidene)-p-methylaniline] | 27%
Cc1cc(F)ccc1N=Cc1ccccc1 [N-benzylidene-2-methyl-4-fluoroaniline] | 26.8%
Cc1ccccc1N=Cc1ccccc1 [N-benzylidene-o-toluidine] | 5.5%
Clc1ccc(N=Cc2ccccc2)cc1 [N-benzylidene-p-chloroaniline] | 29.3%
CCc1ccc(N=Cc2ccccc2)cc1 [N-benzylidene-p-ethylaniline] | 30.5%
Cc1ccc(N=Cc2ccccc2)cc1 [N-benzylidene-p-toluidine] | 45%
C(=Nc1ccccc1)c1ccccc1 [N-benzylideneaniline, N-Benzylideneaniline] | 4.9%
